According to PMC13081163, “Discovery of a novel Nrf2 activator that modulates mitochondrial function in neurons by regulating DHRS3-Nrf2 interaction after ischemic stroke” (Theranostics, 2026):
Like-named read-outs stand apart in the source and are kept apart here.

Tests used:
[1] = Plasma and brain levels after i.v. dosing (blood-brain barrier); format: in vivo, rat; conditions: for concentration at 0.25 h / concentration at 1 h / concentration at 4 h: intravenous, i.v.
Procedure: Male SD rats were intravenous injection with Cpd.51, blood and brain tissues were collected 15 min, 1 h, 4 h, 6 h, 8 h and 24 h after drug administration. Samples were measured by a Shimadzu chromatography system (Shimadzu, Kyoto, Japan) coupled with an AB Sciex triple quadrupole 4500 mass spectrometer (SCIEX Triple Quad™ 4500 LC-MS/MS, Applied Biosystems Sciex, Ontario, Canada) using Analyst 1.4.2 software. A HPLC column (ACQUITY UPLC BEH C18, 2.1 × 50 mm, 1.7 μm) were used. Protein precipitation method was used for detection: 50 μL plasma sample or brain homogenate sample were added with 200 μL acetonitrile containing internal standard for precipitation, then vortexed for 3 min. The supernatant was injected into system for analysis after centrifugation.

[2] = Metabolite identification in human liver microsomes; format: in vitro ADME
Procedure: In vitro identification of metabolites was performed by incubating Cpd.51 (parent compound, final concentration 10 µM) with human liver microsomes (final protein concentration, 1 mg/mL) at 37 °C in a 100 mM potassium phosphate buffer containing 5 mM MgCl2. Samples were quenched with methanol and analyzed using a Waters G2-XS Q-Tof UPLC-MS system employing positive-ion and negative-ion electrospray ionization. The LC-MS extract ion chromatograms to identify the major putative metabolites. MS/MS spectra of Cpd.51 and its metabolites were acquired during both positive-ion and negative-ion electrospray. The potential chemical structures of the metabolites were inferred from their MS/MS spectra and retention times. Metabolic pathways of Cpd.51 in human liver microsomes were subsequently proposed. […]
The objective of this study is to identify major metabolites of Cpd.51 generated in human […]
In vitro metabolites identification was conducted after incubating Cpd.51 (parent compound, final concentration 10 µM) with human liver microsomes (final protein concentration, 1 mg/mL) at 37 °C in 100 mM potassium phosphate buffer containing 5 mM MgCl2 in the presence of NADPH or without NADPH. The samples taken at 0 minute (min) and 5 min were quenched by methanol and analyzed using Waters G2-XS Q-Tof UPLC-MS system with positive-ion and negative-ion electrospray ionization. […]

[3] = 28-day long-term toxicity in rats (intragastric); format: in vivo, rat; conditions: 28 days intragastric; Oma 10 mg/kg, Cpd.51 1, 3 and 10 mg/kg
Procedure: During the long-term toxicity test, rats in each group received daily intragastric administration for 28 consecutive days. Animals in the Sham group were administered a mixture of 99% sesame oil and 1% DMSO at a volume of 0.5 mL per rat. Rats in the remaining groups were intragastrically administered varying doses of the respective therapeutic agents.
During the 28-day long-term toxicity study, rats were euthanized following the completion of continuous intragastric administration. Livers and kidneys from both male and female rats in each group were photographed for macroscopic examination, and serum samples were collected for subsequent kit-based analysis. The liver/kidney index was obtained by dividing the weight of the liver/kidney by the body weight.

DHRS3 = test: Western blotting of DHRS3 in SH-SY5Y cells after OGD/R; format: cell-based, human
Procedure: The western blotting analysis was conducted as we previously described. First, the total protein was extracted using RIRA buffer and then the protein concentrations were determined using the BCA kit (P0012, Beyotime, China). The extraction of mitochondrial proteins was carried out according to the instructions (C3601, Beyotime, China). The samples were separated electrophoretically and then wet-transferred onto 0.2 μm PVDF membranes (88520, Thermo Scientific, USA). After blocking with 5% non-fat dry milk in Tris-buffered saline (TBS) (pH 7.4) containing 0.1% Tween 20 at room temperature for 2 h, the protein membranes were sequentially immersed with the primary antibody at 4 °C overnight and secondary antibody at room temperature for 1 h. Finally, the membranes were quantified using image analysis system.

With `CC1(C)CCC2(C(=O)NO)CCC3(C)C(C(=O)C=C4C5(C)C=C(C#N)C(=O)C(C)(C)C5CCC43C)C2C1` (stereo not drawn) [Cpd.51] the “distribution to brain tissue” value ([1]; intravenous administration) was “relatively effective distribution to brain tissue”, the concentration at 0.25 h ([1]; male, SD, rat, brain, 5 mg/kg, 0.25 h, read-out: Brain) was 86.7 ± 49.3 ng/g and the concentration at 1 h ([1]; male, SD, rat, brain, 5 mg/kg, 1 h, read-out: Brain) was 29.5 ± 17.5 ng/g. It also gave a concentration at 4 h ([1]; male, SD, rat, brain, 5 mg/kg, 4 h, read-out: Brain) of 10.3 ± 4 ng/g, a Kp at 0.25 h ([1]; male, SD, rat, brain, iv, 5 mg/kg, 0.25 h) of 0.07 ± 0.04 and a Kp at 1 h ([1]; male, SD, rat, brain, iv, 5 mg/kg, 1 h) of 0.16 ± 0.12. The Kp at 4 h ([1]; male, SD, rat, brain, iv, 5 mg/kg, 4 h) was 0.28 ± 0.14, the concentration at 0.25 h ([1]; male, SD, rat, plasma, 5 mg/kg, 0.25 h, read-out: Plasma) was 1290 ± 68 ng/mL and the concentration at 1 h ([1]; male, SD, rat, plasma, 5 mg/kg, 1 h, read-out: Plasma) was 198 ± 44 ng/mL. For the same molecule, the concentration at 4 h ([1]; male, SD, rat, plasma, 5 mg/kg, 4 h, read-out: Plasma) was 39.5 ± 10.4 ng/mL, the “number of major metabolites” value ([2]; human liver microsomes) was 10 and the “Relative UV abundance (5 min), relative to parent in T0 sample” value ([2]; human liver microsomes with NADPH, 10 µM Cpd.51, 5 min, UV 250-260 nm) was 54.06%. The body weight [3] was “neither compound significantly affected body weight”, the “plasma markers of hepatic and renal injury” value [3] was “showed no such effects at any dose tested” and the “DHRS3 protein expression induced by OGD/R” value (DHRS3) was “substantially attenuated this induction”.
